From PubChem BioAssay (NCI)
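In this assay, cells in 96-well plates receive the compound at five concentrations for 48 hours. Endpoints are linearly interpolated between the surrounding concentrations. GI50 marks 50% less growth. TGI marks complete inhibition of growth.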

Columns and labels:
Assay in all cases: DTP human tumour cell line panel, 48 h
786-0 renal = tested on: 786-0 renal
DMS 114 small cell lung = tested on: DMS 114 small cell lung
SK-MEL-5 melanoma = tested on: SK-MEL-5 melanoma
CAKI-1 renal = tested on: CAKI-1 renal
K-562 leukemia = tested on: K-562 leukemia
OVCAR-5 ovarian = tested on: OVCAR-5 ovarian
A549 NSCLC = tested on: A549 NSCLC
HT29 colon = tested on: HT29 colon
DMS 273 small cell lung = tested on: DMS 273 small cell lung
UACC-257 melanoma = tested on: UACC-257 melanoma

SMILES	TGI (786-0 renal)	TGI (DMS 114 small cell lung)	TGI (SK-MEL-5 melanoma)	TGI (CAKI-1 renal)	TGI (K-562 leukemia)	TGI (OVCAR-5 ovarian)	TGI (A549 NSCLC)	TGI (HT29 colon)	TGI (DMS 273 small cell lung)	TGI (UACC-257 melanoma)	GI50 (786-0 renal)	GI50 (SK-MEL-5 melanoma)	GI50 (UACC-257 melanoma)	GI50 (CAKI-1 renal)	GI50 (K-562 leukemia)	GI50 (OVCAR-5 ovarian)	GI50 (A549 NSCLC)	GI50 (HT29 colon)
COc1ccc(/C=N/N=C(\N)NO)cc1O	55.7 µM	> 100 µM	> 100 µM	> 100 µM	> 100 µM	> 100 µM	> 100 µM	> 100 µM	–	–	–	–	–	–	–	–	–	–
O/N=C1/C(=C/c2ccc3c(c2)OCO3)CCCC1C(NO)c1ccc2c(c1)OCO2 (stereo unspecified)	96.3 µM	60.7 µM	32.3 µM	94.6 µM	71 µM	–	95.4 µM	30.4 µM	47.3 µM	33.9 µM	–	–	–	–	–	–	–	–
COC(=O)CC1C[C@H](C#N)N(C(=O)c2ccccc2)C[C@@H]1CC[N+](=O)[O-] (stereo partly specified)	> 100 µM	–	> 100 µM	–	> 100 µM	> 100 µM	> 100 µM	> 100 µM	> 100 µM	> 100 µM	–	–	–	–	–	–	–	–
O=C(O)CCCSC(=O)Nc1ccc(N=Nc2ccccc2)cc1	> 100 µM	> 100 µM	–	> 100 µM	> 100 µM	> 100 µM	> 100 µM	> 100 µM	> 100 µM	> 100 µM	–	–	–	–	–	–	–	–
O=C(COc1ccc(Cl)cc1)N1N=C(c2ccc(Cl)cc2)CC1(O)c1ccccc1 (stereo unspecified)	28.3 µM	> 100 µM	29.3 µM	> 100 µM	> 42.7 µM	45.3 µM	34.7 µM	26.3 µM	33.1 µM	44.3 µM	–	–	–	–	–	–	–	–
CC1=C(C(=O)Nc2cc(=O)n(C)c(=O)n2C)C(c2ccco2)C(C(=O)Nc2cc(=O)n(C)c(=O)n2C)=C(C)N1	> 100 µM	> 100 µM	> 100 µM	> 100 µM	> 100 µM	> 100 µM	> 100 µM	> 100 µM	–	> 100 µM	–	–	–	–	–	–	–	–
CCN(CC)c1c(C(=O)/C=C/c2ccc(Cl)cc2)c(-c2ccccc2)nn(C)c1=O	3.5 µM	3.76 µM	3.2 µM	21.5 µM	7.27 µM	3.23 µM	3.89 µM	3.32 µM	3.41 µM	3.76 µM	–	–	–	–	–	–	–	–
O=C(O)C1=C(O)C(C(=O)O)C23CCCCCCCCCCC12C(C(=O)O)C(O)=C3C(=O)O (stereo unspecified)	> 100 µM	> 100 µM	> 100 µM	–	> 100 µM	> 100 µM	> 100 µM	> 100 µM	> 100 µM	> 100 µM	–	–	–	–	–	–	–	–
O=C(NCCCCNc1cccccc1=O)OCc1ccccc1	> 100 µM	> 100 µM	> 100 µM	> 100 µM	> 100 µM	> 100 µM	> 100 µM	> 100 µM	> 100 µM	> 100 µM	–	–	–	–	–	–	–	–
Cc1cc(CC(=O)NCCO)n(CCO)c(=O)c1	> 100 µM	> 100 µM	> 100 µM	> 100 µM	> 100 µM	> 100 µM	> 100 µM	> 100 µM	> 100 µM	> 100 µM	–	–	–	–	–	–	–	–
C=CCNC(=O)N(CCCCC(NC(C)=O)C(=O)NCc1ccccc1)Cc1ccccc1 (stereo unspecified)	> 100 µM	–	> 100 µM	> 100 µM	> 100 µM	> 100 µM	> 100 µM	> 100 µM	> 100 µM	> 100 µM	–	–	–	–	–	–	–	–
CCc1ccccc1NC(=O)C1=C(C)NC(C)=C(C(=O)Nc2ccccc2CC)C1c1ccccc1Cl	> 100 µM	> 100 µM	> 100 µM	> 100 µM	> 100 µM	> 100 µM	> 100 µM	> 100 µM	–	> 100 µM	–	–	–	–	–	–	–	–
COC1=C(N)C(=O)c2nc(C)ccc2C1=O	3.94 µM	3.53 µM	3.09 µM	22.4 µM	> 22.5 µM	3.43 µM	4.57 µM	3.74 µM	3.84 µM	2.78 µM	–	–	–	–	–	–	–	–
CCOC(=O)Nc1ccc2c(c1)/C(=N\NC(N)=S)c1ccccc1-2	9.08 µM	–	7.59 µM	15.2 µM	> 44.8 µM	59.4 µM	19.7 µM	13 µM	–	12.7 µM	3.06 µM	2.44 µM	3.55 µM	3.22 µM	3.94 µM	16.8 µM	3.79 µM	3.23 µM
O=c1[nH]nnc2c1ncn2C1OC(CO)C(O)C1O (stereo unspecified)	> 100 µM	–	> 100 µM	32.5 µM	> 100 µM	> 100 µM	> 100 µM	> 100 µM	–	> 100 µM	24 µM	32.9 µM	14.1 µM	0.998 µM	2.26 µM	74.9 µM	75.7 µM	13 µM
CN(/N=C/c1cccc2cccnc12)c1ccc([N+](=O)[O-])cc1[N+](=O)[O-]	35.8 µM	> 61.9 µM	> 100 µM	64.9 µM	> 100 µM	> 89.6 µM	> 100 µM	> 100 µM	> 55.7 µM	> 100 µM	–	–	–	–	–	–	–	–
N#CC1(C#N)C2(c3ccccc3)OC(c3ccccc3)(c3cc4ccccc4cc32)C1(C#N)C#N	21.3 µM	22.2 µM	27.8 µM	24.1 µM	8.18 µM	29.3 µM	33.9 µM	29.3 µM	32 µM	> 54.2 µM	–	–	–	–	–	–	–	–
CNC(=O)Nc1nc2ccc([N+](=O)[O-])cc2[nH]1	> 100 µM	–	> 100 µM	> 100 µM	> 100 µM	> 100 µM	> 100 µM	> 100 µM	–	> 100 µM	–	–	–	–	–	–	–	–
O=C1C(Cl)=C(Nc2cccc(Cl)c2)C(=O)N1Cc1ccc(Cl)cc1	5.48 µM	–	4.32 µM	13.9 µM	> 94.1 µM	15.1 µM	21 µM	31.3 µM	–	28.2 µM	0.186 µM	0.66 µM	6.39 µM	0.919 µM	0.858 µM	0.864 µM	3.71 µM	0.758 µM
